Laboratory results from ChEMBL document CHEMBL1130353, “Conformational studies of paclitaxel analogs modified at the C-2' position in hydrophobic and hydrophilic solvent systems” (J Med Chem, 1997).

Tests used:
Type in all cases: functional, cell-based
EMT6 = assay: Inhibitory activity of compound against murine mammary adenocarcinoma (EMT-6) cell proliferation; settings: Mus musculus
OV-1063 = assay: Inhibitory activity of compound against human ovarian carcinoma (OV-1063) Cell proliferation
J774 = assay: Inhibitory activity of compound against murine macrophage-like (J774.2) cell proliferation; settings: Mus musculus

| SMILES | IC50 (EMT6) | IC50 (OV-1063) | IC50 (J774) |
| --- | --- | --- | --- |
| CO[C@@H](C(=O)O[C@H]1C[C@@]2(O)[C@@H](OC(=O)c3ccccc3)C3[C@]4(OC(C)=O)COC4C[C@H](O)[C@@]3(C)C(=O)[C@H](OC(C)=O)C(=C1C)C2(C)C)[C@@H](NC(=O)c1ccccc1)c1ccccc1 (some centres undefined) | 270 nM | 270 nM | 470 nM |
| CC(=O)O[C@H]1C(=O)[C@@]2(C)C([C@H](OC(=O)c3ccccc3)[C@]3(O)C[C@H](OC(=O)C[C@@H](NC(=O)c4ccccc4)c4ccccc4)C(C)=C1C3(C)C)[C@]1(OC(C)=O)COC1C[C@@H]2O (some centres undefined) | 300 nM | 450 nM | 400 nM |
| CC(=O)O[C@H]1C(=O)[C@@]2(C)[C@H]([C@H](OC(=O)c3ccccc3)[C@]3(O)C[C@H](OC(=O)[C@H](O)[C@@H](NC(=O)c4ccccc4)c4ccccc4)C(C)=C1C3(C)C)[C@]1(OC(C)=O)CO[C@@H]1C[C@@H]2O [PACLITAXEL] | 9 nM | 15 nM | 15 nM |
